Assay: gradient 5% acetonitrile 3 min, to 50% in 2 min, to 85% in 15 min, held 3 min, 100 µL/min
Settings: column: Zorbax Extend-C18 2.1 x 50 mm; eluents: water / acetonitrile, 0.1% formic acid
In short: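 Data were gathered over 3 months by HPLC coupled to a quadrupole time-of-flight mass spectrometer, operated in positive and negative ionization mode. Mixtures of ~100 pure standards ran on a Zorbax Extend-C18 column (2.1 × 50 mm, 1.8 μm) at 100 μL/min, with water and acetonitrile each containing 0.1% formic acid and dead and dwell volumes of 40 μL and 900 μL. Retention time was read from adduct peaks picked by computer and checked manually.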

Row | Compound | RP-LC retention time
1 | CN(Cc1ccco1)c1nc(-c2ccc(Cl)cc2)nc2ccccc12 | 858 s
2 | COC(=O)C(C)NC(=O)N1CCC2(CC1)Nc1cc(F)ccc1-n1cccc12 (stereo not given) | 865 s
3 | COc1cccc(-c2nnc(Cc3nc(-c4ccccc4F)no3)o2)c1 | 1020 s
4 | CCCN1C(=O)C(CC(=O)NCCOC)Sc2ncccc21 (stereo not given) | 632 s
5 | O=C(c1cccs1)N1CCN(c2cc(Cl)ccc2Cl)CC1 | 1020 s
6 | N#Cc1c(C(F)(F)F)cc(-c2ccccc2)nc1SCCC(N)=O | 839 s
7 | COc1ccc(NC(=O)Cn2ncc3c(c2=O)N(C2CC2)C(=O)CS3)cc1OC | 647 s
8 | COc1ccc(CN2CN=C(Nc3nc(C)c4cccc(OC)c4n3)NC2)cc1 | 750 s
9 | Cc1c(-c2cccc(NS(=O)(=O)c3ccc(Cl)cc3)c2)nc2ncccn12 | 627 s
10 | COc1ccc(OC)c(NC(=O)CSc2nccc(N3CCN(c4cc(C)ccc4C)CC3)n2)c1 | 1010 s
11 | CC(NC(=O)CCNc1c(-c2ccc(F)cc2)nc2cnccn12)c1ccccn1 (stereo not given) | 578 s
12 | CCn1cc(C(=O)N[C@H](C(=O)O)C(C)C)c(=O)c2cc3c(cc21)OCO3 | 681 s
13 | O=C(NCC1CCN(C(=O)COc2ccccc2)CC1)c1ccc(Br)o1 | 722 s
14 | O=C(O)c1cnc(N2CCSCC2)nc1-c1ccccc1 | 866 s
15 | CN(C)c1cc(C(N)=O)c2ccccc2n1 | 694 s
16 | CCN1C(=O)COc2ccc(-c3noc(-c4ccccc4Br)n3)cc21 | 1180 s
17 | COc1ccc(C2(C(=O)N3CCC4(CC3)C(OC)CN4c3cccc(F)c3)CC2)cc1 (stereo not given) | 1090 s
18 | COc1cc(NC(=O)N2CCN(c3ccc(=O)n(-c4ccc(C)cc4)n3)CC2)cc(OC)c1OC | 749 s
19 | O=C(NC1CC1)C1(F)CCN(S(=O)(=O)c2ccccc2)CC1 | 673 s
20 | CCOc1cc(Cl)c(S(=O)(=O)Nc2cccnc2)cc1Cl | 717 s
21 | O=C(Nc1ncc([N+](=O)[O-])s1)c1c2c(nn1C1CCS(=O)(=O)C1)CCC2 (stereo not given) | 792 s
22 | COC(=O)c1ccc(NC(=O)c2csc(-c3cn(C)c4ncccc34)n2)cc1 | 990 s
23 | Cc1ccc(C(=O)N2C[C@H]3C[C@H](C2)[C@H]2CCCC(=O)N2C3)s1 | 646 s

Row | Compound | RP-LC retention time
24 | O=S(=O)(c1cc(-c2nnc(C3CC3)o2)co1)N1CCN(C2CCCCC2)CC1 | 640 s
25 | COCCNC(=O)C1CCCN(C(=O)Nc2ccc(NC(=O)Nc3ccccc3)cc2)C1 (stereo not given) | 676 s
26 | Cc1c(Cl)cccc1S(=O)(=O)N1CCCN(c2ccc(=O)n(-c3ccccc3)n2)CC1 | 944 s
27 | CCCN1C(=O)Cc2ccccc2C1C(=O)NCc1ccc(Br)cc1 (stereo not given) | 857 s
28 | COc1ccc(-c2noc(CN3C(=O)COc4ccc(C(C)(C)C)cc43)n2)cc1OC | 1120 s
29 | CCCNC(=O)C1CCN(c2ccc(SCC(=O)Nc3c(C)cccc3Cl)nn2)CC1 | 1160 s
30 | CCn1cc2c3c(cccc31)CN(C(=O)CCc1ccccc1)CC2 | 1050 s
31 | CNC(=O)N1CCCC(c2cccc(C(=O)NC(C)c3ccc(C)cc3C)c2)C1 (stereo not given) | 880 s
32 | CCn1c(=O)sc2cc(S(=O)(=O)N3CCC(C(=O)NCc4ccc(C)cc4)CC3)ccc21 | 932 s
33 | Cc1ccc(NC(=O)Cn2nc3c(N4CCCCCC4)nccn3c2=O)cc1F | 739 s
34 | COc1ccc(CC(=O)NCc2ccc3c(c2)ncn3C(C)C)cc1 | 600 s
35 | COC(=O)c1c(NCc2ccccc2C)c2cccc(Cl)c2[nH]c1=O | 859 s
36 | Cc1cnc(C(=O)NCC2CCCCC(=O)N2)cn1 (stereo not given) | 593 s
37 | COc1ccc(-c2nc3cnccn3c2Nc2ccc(C)c(Cl)c2)cc1OC | 878 s
38 | Cc1nn(-c2ccccc2)c(C)c1CCc1nn2c(-c3ccccc3F)nnc2s1 | 865 s
39 | Cc1ccc(Sc2nccnc2N2CCCC(C(=O)NC3CCCCCC3)C2)cc1 (stereo not given) | 1250 s
40 | Cc1onc(-c2ccccn2)c1C(=O)NCCCN1CCN(C2CCCCC2)CC1 | 582 s
41 | O=C1CCCc2cc(S(=O)(=O)NCCCN3CCN(c4ccccc4)CC3)ccc2N1 | 576 s
42 | COc1ccc(S(=O)(=O)N2CCC(c3noc(-c4ccncc4)n3)C2)cc1 (stereo not given) | 816 s
43 | CCOc1cccc(-c2noc(CN3C(=O)COc4ccc(C(C)(C)C)cc43)n2)c1 | 1380 s
44 | Cc1nc2n(c(=O)c1C)CCN2CC(=O)NCc1cccs1 | 619 s
45 | Cn1ncc2c3ccccc3n(CCCC(=O)NCc3ccco3)c2c1=O | 787 s
46 | CCOc1cccc(C2c3[nH]c4ccccc4c3CCN2C(=O)Cc2cccs2)c1 (stereo not given) | 1180 s

Row | Compound | RP-LC retention time
47 | Cc1nc2c(c(N3CCSCC3)n1)CCC2 | 588 s
48 | CCS(=O)(=O)N1CC(=O)N(c2cccc(Cl)c2)C(C)(C(=O)NC2CCCCCC2)C1 (stereo not given) | 895 s
49 | CNCc1ccc(-c2cc(Cl)cc(Cl)c2)o1 | 658 s
50 | Cc1nnc(-c2cc(NC(=O)c3ccccc3Br)c(C)s2)o1 | 858 s
51 | Cc1cc(C)cc(C(=O)Nc2cccn3nc(C4CCC4)nc23)c1 | 1070 s
52 | CCOC(=O)c1cccc(N2C=C(C(=O)OC)S(=O)(=O)c3ccccc32)c1 | 858 s
53 | C=CCc1ccccc1OCC(O)CN1CCC(C)CC1 (stereo not given) | 588 s
54 | CCc1nncn1C1CCN(S(=O)(=O)c2ccc(OC)cc2)CC1 | 668 s
55 | CCN(CC)CCNC(=O)Cn1nc(C)c2nn(-c3ccc(F)cc3)c(-n3cccc3)c2c1=O | 675 s
56 | CN1CCN(CCNC(=O)c2nc3ccccn3c2-c2ccc(Cl)cc2)CC1 | 603 s
57 | CCc1cccc(NS(=O)(=O)c2cc(-c3[nH]ncc3C(=O)N3CCCCC3)oc2C)c1 | 819 s
58 | CCn1c(=O)c(N2CCCC(C(=O)NCCc3c[nH]c4ccc(Cl)cc34)C2)nc2ccccc21 (stereo not given) | 1010 s
59 | Cc1ccc(NC(=O)N(C)CC2CCOCC2)cc1C | 795 s
60 | O=C(Nc1ccc2c(c1)C(=O)Nc1ccccc1O2)NC1CCCCC1 | 776 s
61 | COc1ccc2[nH]c(=O)c(CCC(=O)NCc3ccncc3)cc2c1 | 574 s
62 | COc1ccc(NC(=O)C(C)C2CCN(C(=O)Nc3ccc(Cl)cc3)CC2)cc1 (stereo not given) | 854 s
63 | Cc1ccc(N2C(=O)CSC2c2ccccc2)cc1 (stereo not given) | 843 s
64 | COc1ccc(NC(=O)N2CCCC2c2nc(-c3cccc(F)c3)no2)cc1 (stereo not given) | 842 s
65 | COc1cccc(C(=O)Nc2nc(-c3ccc4c(c3)NC(=O)CO4)c(C)s2)c1 | 877 s
66 | COCC(=O)N(C1CCOCC1)C1CCN(S(=O)(=O)c2ccc(F)cc2)CC1 | 749 s
67 | COc1ccc(-c2nc(-c3ccc4c(c3)nc(C)c(=O)n4C)no2)cc1OC | 876 s
68 | CCOC(=O)c1c(C)c(C(=O)C(C)N(Cc2ccc(F)cc2)C(=O)CC)c(C)n1CC (stereo not given) | 1080 s
69 | O=C(CSc1nccn1-c1ccc(C(=O)NCc2cccs2)cc1)NC1CCCC1 | 644 s

Row | Compound | RP-LC retention time
70 | CC(C)CC(=O)N1CCC2(CC1)c1nccn1-c1ccccc1CN2C | 580 s
71 | COc1ccc(C(=O)N2CCN(c3cc(C)n4cnnc4n3)CC2)cn1 | 571 s
72 | O=C(NCCn1c(=O)n(Cc2ccc(F)cc2)c2cccnc21)c1nccc2ccccc12 | 840 s
73 | CN(CC1CCOCC1)S(=O)(=O)Cc1ccccc1 | 787 s
74 | CC(Cc1ccco1)NC(=O)C1CC(=O)N(c2ccc(F)cc2)C1 (stereo not given) | 714 s
75 | Cc1cc(C)cc(NC(=O)C2CCCN(S(=O)(=O)c3c[nH]c(C(=O)N4CCCC4)c3)C2)c1 (stereo not given) | 874 s
76 | Cc1onc(-c2ccccn2)c1C(=O)NCCc1c[nH]c2ccc(Cl)cc12 | 1000 s
77 | CCN(CC)CCNC(=O)C(C)n1c2ccccc2c2cnn(C)c(=O)c21 (stereo not given) | 609 s
78 | CCC(=O)Nc1ccc(-n2cnc(C(=O)N3CCN(c4ccccc4OC)CC3)c2)nc1 | 667 s
79 | COc1ccc(Cc2nnc(C3CCN(C(=O)c4ccco4)CC3)s2)cc1 | 703 s
80 | CCn1ccc(C(=O)Nc2ccc3c(c2)Sc2ncccc2C(=O)N3C(C)C)n1 | 790 s
81 | O=C(Nc1cccc(-c2nnc3n2CCCC3)c1)c1ccc2ccccc2n1 | 779 s
82 | COc1ccc(C(C)NC(=O)C2CCN(c3cnc4nccnc4c3)CC2)cc1OC (stereo not given) | 664 s
83 | COCCN(Cc1ccncc1)C(=O)c1ccccc1SC | 557 s
84 | NC(N)=Nc1nc2ccc([N+](=O)[O-])cc2[nH]1 | 651 s
85 | Cc1nc(-c2cc(S(=O)(=O)N(Cc3ccccc3)C(C)C)c(C)s2)sc1C | 978 s
86 | CCN(C(=O)c1ccccc1Cl)c1nc(-c2ccccc2)cs1 | 1310 s
87 | Cc1oc(C2CCN(C(=O)c3cc4ccccc4[nH]3)CC2)nc1C(=O)N1CCSCC1 | 847 s
88 | CCn1cc(-c2ccc(F)cc2)cc1C(=O)N1CCCC1 | 959 s
89 | O=C1CC(c2ccc(F)cc2)Cc2c1cnn2-c1nc2ccccc2[nH]1 (stereo not given) | 891 s
90 | O=C(NCc1csc(-c2ccccc2)n1)C1CCN(S(=O)(=O)c2ccc3[nH]c(=O)oc3c2)CC1 | 758 s
